Tests used:
morningglory = test: Test A pre-/postemergence herbicide test; type: in vivo, Ipomoea spp.; settings: for Morningglory plant response rating: Preemergence, visual rating on 0 to 100 scale (0 no effect, 100 complete control)
Method in brief: (§1)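 Seeds sown in loam soil/sand blend received a preemergence directed soil spray of test chemical in non-phytotoxic solvent with surfactant; postemergence plants (2–10 cm, one- to two-leaf stage) were sprayed with the same formulation. After about 10 days in greenhouse, injury was rated visually versus untreated controls, 0 (no effect) to 100 (complete control).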

corn = test: Test A pre-/postemergence herbicide test; type: in vivo, Zea mays; settings: for Corn plant response rating: Preemergence, visual rating on 0 to 100 scale (0 no effect, 100 complete control)
Method in brief: as §1

barnyardgrass [1] = test: Test A pre-/postemergence herbicide test; type: in vivo, Echinochloa crus-galli; settings: for Barnyardgrass plant response rating: Preemergence, visual rating on 0 to 100 scale (0 no effect, 100 complete control)
Method in brief: as §1

crabgrass, large = test: Test A pre-/postemergence herbicide test; type: in vivo, Digitaria sanguinalis; settings: for Crabgrass, Large plant response rating: Preemergence, visual rating on 0 to 100 scale (0 no effect, 100 complete control)
Method in brief: as §1

barnyardgrass [2] = test: Test B flooded paddy test; type: in vivo, Echinochloa crus-galli; settings: 250 g ai/ha, Flood; scale of 0 to 100 where 0 is no effect and 100 is complete control
Method in brief: (§2)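 2-leaf plants; flood 3 cm over soil; compound into paddy water; depth held. Greenhouse 13–15 d. Visual rating vs controls, 0 (no effect) to 100 (complete control); dash = not tested.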

sedge, umbrella = test: Test B flooded paddy test; type: in vivo, Cyperus difformis; settings: 250 g ai/ha, Flood; scale of 0 to 100 where 0 is no effect and 100 is complete control
Method in brief: as §2

giant foxtail = test: Test A pre-/postemergence herbicide test; type: in vivo, Setaria faberii; settings: for Foxtail, Giant plant response rating: Preemergence, visual rating on 0 to 100 scale (0 no effect, 100 complete control)
Method in brief: as §1

velvetleaf = test: Test A pre-/postemergence herbicide test; type: in vivo, Abutilon theophrasti; settings: for Velvetleaf plant response rating: Preemergence, visual rating on 0 to 100 scale (0 no effect, 100 complete control)
Method in brief: as §1

pigweed = test: Test A pre-/postemergence herbicide test; type: in vivo, Amaranthus retroflexus; settings: for Pigweed plant response rating: Preemergence, visual rating on 0 to 100 scale (0 no effect, 100 complete control)
Method in brief: as §1

rice = test: Test B flooded paddy test; type: in vivo, Oryza sativa; settings: 250 g ai/ha, Flood; scale of 0 to 100 where 0 is no effect and 100 is complete control
Method in brief: as §2

wheat = test: Test A pre-/postemergence herbicide test; type: in vivo, Triticum aestivum; settings: for Wheat plant response rating: Preemergence, visual rating on 0 to 100 scale (0 no effect, 100 complete control)
Method in brief: as §1

ducksalad = test: Test B flooded paddy test; type: in vivo, Heteranthera limosa; settings: 250 g ai/ha, Flood; scale of 0 to 100 where 0 is no effect and 100 is complete control
Method in brief: as §2

[3] = Postemergence, 125 g ai/ha, 0 to 100 scale, 0 no effect, 100 complete control
[4] = Postemergence, 500 g ai/ha, 0 to 100 scale (0 no effect, 100 complete control)
[5] = preemergence, 500 g ai/ha, 0 to 100 scale
[6] = preemergence, 500 g ai/ha, 0 to 100 scale (0 no effect, 100 complete control)

| Structure (SMILES) | Plant response rating, Morningglory (morningglory; [3]) | Plant response rating, Morningglory (morningglory; [4]) | Morningglory plant response rating (morningglory; 125 g ai/ha) | Plant response rating, Morningglory (morningglory; [5]) | Plant response rating, Corn (corn; [3]) | Plant response rating, Corn (corn; [4]) | Corn plant response rating (corn; 125 g ai/ha) | Plant response rating, Corn (corn; [5]) | Plant response rating, Barnyardgrass (barnyardgrass [1]; [3]) | Plant response rating, Barnyardgrass (barnyardgrass [1]; [4]) | Barnyardgrass plant response rating (barnyardgrass [1]; 125 g ai/ha) | Plant response rating, Barnyardgrass (barnyardgrass [1]; [6]) | Plant response rating, Crabgrass, Large (crabgrass, large; [3]) | Plant response rating, Crabgrass, Large (crabgrass, large; [4]) | Crabgrass, Large plant response rating (crabgrass, large; 125 g ai/ha) | Plant response rating, Crabgrass, Large (crabgrass, large; [5]) | Plant response rating, Barnyardgrass (barnyardgrass [2]) | Plant response rating, Sedge, Umbrella (sedge, umbrella) | Plant response rating, Foxtail, Giant (giant foxtail; [3]) | Plant response rating, Foxtail, Giant (giant foxtail; [4]) | further results |
| --- | --- | --- | --- | --- | --- | --- | --- | --- | --- | --- | --- | --- | --- | --- | --- | --- | --- | --- | --- | --- | --- |
| O=C1NCC(c2ccc3c(c2)OC(F)(F)O3)C1C(=O)Nc1ccccc1F (stereo not drawn) [Compound 63] | 0 | 0 | 0 | 0 | 0 | 50 | 0 | 0 | 60 | 80 | 50 | 80 | 80 | 90 | 90 | 90 | 20 | 0 | 70 | 90 | Foxtail, Giant plant response rating (giant foxtail; 125 g ai/ha): 70; Plant response rating, Foxtail, Giant (giant foxtail; [5]): 90; Plant response rating, Velvetleaf (velvetleaf; [3]): 0; Plant response rating, Velvetleaf (velvetleaf; [4]): 0; Velvetleaf plant response rating (velvetleaf; 125 g ai/ha): 0; Plant response rating, Velvetleaf (velvetleaf; [5]): 0; Plant response rating, Pigweed (pigweed; [3]): 0; Plant response rating, Pigweed (pigweed; [4]): 0; Pigweed plant response rating (pigweed; 125 g ai/ha): 0; Plant response rating, Pigweed (pigweed; [5]): 0; Plant response rating, Rice (rice): 0; Plant response rating, Wheat (wheat; [3]): 0; Plant response rating, Wheat (wheat; [4]): 30; Wheat plant response rating (wheat; 125 g ai/ha): 0; Plant response rating, Wheat (wheat; [5]): 0; Plant response rating, Ducksalad (ducksalad): 60 |
| O=C1NCC(c2cc(F)c(F)c(F)c2)C1C(=O)Nc1cccc([N+](=O)[O-])c1 (stereo not drawn) [Compound 49] | 0 | 0 | 0 | 0 | 0 | 0 | 0 | 0 | 0 | 20 | 0 | 20 | 20 | 70 | 70 | 90 | 0 | 40 | 0 | 40 | Foxtail, Giant plant response rating (giant foxtail; 125 g ai/ha): 20; Plant response rating, Foxtail, Giant (giant foxtail; [5]): 70; Plant response rating, Velvetleaf (velvetleaf; [3]): 0; Plant response rating, Velvetleaf (velvetleaf; [4]): 0; Velvetleaf plant response rating (velvetleaf; 125 g ai/ha): 0; Plant response rating, Velvetleaf (velvetleaf; [5]): 0; Plant response rating, Pigweed (pigweed; [3]): 0; Plant response rating, Pigweed (pigweed; [4]): 0; Pigweed plant response rating (pigweed; 125 g ai/ha): 0; Plant response rating, Pigweed (pigweed; [5]): 0; Plant response rating, Rice (rice): 0; Plant response rating, Wheat (wheat; [3]): 0; Plant response rating, Wheat (wheat; [4]): 0; Wheat plant response rating (wheat; 125 g ai/ha): 0; Plant response rating, Wheat (wheat; [5]): 0; Plant response rating, Ducksalad (ducksalad): 70 |

Source: patent US10294202B2, “Pyrrolidinones as herbicides” (FMC Corporation, priority 2013, dated 2019)
